According to patent US11358987B2, “Albicidin derivatives, their use and synthesis” (priority 2018, dated 2022):
In brackets after ≈: the same amount, converted by molar mass. Read-outs that look alike come from different tables or passages of the source.

Assays:
Experiment in all cases: Microdilution assay, MIC determination (CLSI M07-A9)
Type in all cases: cell-based
[1] = system: M. luteus DSM1790; details: Micrococcus luteus
Description: (§1) E. coli DSM 1116; E. coli BW25113; S. typhimurium TA100; Bacillus subtilis DSM10; M. phlei DSM750 and Micrococcus luteus DSM1790
(§2) The tests were performed using the micro dilution method.
(§3) The determination of MIC values was performed according to the ninth edition of the Approved Standard M07-A9 (CLSI. Methods for Dilution Antimicrobial Susceptibility Tests for Bacteria That Grow Aerobically; Approved Standard-Ninth Edition. CLSI document M07-A9. Wayne, Pa.: Clinical and Laboratory Standards Institute; 2012.)
(§4) The test was carried out for the six different bacterial strains 20 μL of cryo stock of each strain were inoculated in 20 mL of LB media (Lysogeny broth: 10 g/L peptone, 5 g/L yeast extract, 5 g/L NaCl) followed by incubation over night at 37° C., 200 rpm. The test inoculum was adjusted by the 0.5 McFarland Standard (OD625 from 0.08 to 0.1). Within 15 min of preparation, the adjusted inoculum suspension was diluted in MHBII media (BBL™ Mueller-Hinton Broth II, Becton, Dickinson and Company, New Jersey/USA) so that each well contained approximately 5×10^5 CFU/mL in a final volume of 100 μL. 95 μL of the inoculum were applied per well and 5 μL of the (diluted) antibiotic substance were added.
(§5) Previously the dry antibiotic compounds were dissolved in DMSO (100%) with a concentration of 2560 μg/mL and the resulting stock solutions were further diluted in DMSO (100%). 5 μL of each antibiotic dilution were applied to the microdilution tray to reach final concentrations of 64 μg/mL to 0.008 μg/mL. One row of each well plate was left as a growth control without antibiotic substances and another row of the microdilution tray was used as sterility control (only MHB II-media). The antimicrobial effect of the solvent (DMSO) was tested by adding 5 μL DMSO to several wells without antibiotics.
(§6) Purity check and cell titer control were performed according to International Standard M07-A9 on Mueller-Hinton II Agar (Mueller Hinton II Broth, 15 g/L agar-agar).
(§7) Both microdilution trays and agar plates were incubated at 37° C. for 20 h and subsequently analyzed visually.

[2] = system: M. phlei DSM750; details: Mycolicibacterium phlei
Description: as §1, §2, §3, §4, §5, §6, §7

[3] = system: E. coli DSM1116; details: Escherichia coli
Description: as §1, §2, §3, §4, §5, §6, §7

[4] = system: S. typhimurium TA100; details: Salmonella enterica, 20 h
Description: as §1, §2, §3, §4, §5, §6, §7

[5] = system: E. coli BW25113; details: Escherichia coli
Description: as §1, §2, §3, §4, §5, §6, §7

[6] = system: B. subtilis DSM10; details: Bacillus subtilis
Description: as §1, §2, §3, §4, §5, §6, §7

[7] = M. luteus DSM1790, 37° C., 20 h, MHBII media, read-out: MIC
[8] = M. phlei DSM750, 37° C., 20 h, MHBII media, read-out: MIC
[9] = E. coli DSM1116, 37° C., 20 h, MHBII media, read-out: MIC
[10] = S. typhimurium TA100, 37° C., MHBII media, read-out: MIC
[11] = E. coli BW25113, 37° C., 20 h, MHBII media, read-out: MIC
[12] = B. subtilis DSM10, 37° C., 20 h, MHBII media, read-out: MIC

SMILES | MIC ([1]; DSM1790, 20 h) [µg/mL] | MIC ([2]; DSM750, 20 h) [µg/mL] | MIC ([3]; DSM1116, 20 h) [µg/mL] | MIC ([4]; TYPHIMURIUM) [µg/mL] | MIC ([5]; BW25113, 20 h) [µg/mL] | MIC ([6]; DSM10, 20 h) [µg/mL] | MIC [1, 7] [µg/mL] | MIC [2, 8] [µg/mL] | MIC [3, 9] [µg/mL] | MIC [4, 10] [µg/mL] | MIC [5, 11] [µg/mL] | MIC [6, 12] [µg/mL]
COc1c(NC(=O)c2ccc(NC(=O)c3ccc(NC(=O)[C@H](CC#N)NC(=O)c4ccc(NC(=O)/C(C)=C/c5ccc(O)cc5)cc4)cc3)c(OC)c2O)ccc(C(=O)O)c1O [Albicidin] | 1000 (≈ 1190 µM) | 2000 (≈ 2370 µM) | 63 (≈ 74.7 µM) | 63 (≈ 74.7 µM) | 63 (≈ 74.7 µM) | 250 (≈ 297 µM) |  |  |  |  |  | 
COc1c(NC(=O)c2ccc(NC(=O)c3ccc(NC(=O)C(Cc4cnn[nH]4)NC(=O)c4ccc(NC(=O)/C(C)=C/c5ccc(O)cc5)cn4)cc3)c(OC)c2O)ccc(C(=O)O)c1O (stereo not drawn) [Compound 1] | 500 (≈ 564 µM) | 2000 (≈ 2260 µM) | 16 (≈ 18.1 µM) | 16 (≈ 18.1 µM) | 16 (≈ 18.1 µM) | 250 (≈ 282 µM) |  |  |  |  |  | 
COc1c(NC(=O)c2ccc(NC(=O)c3ccc(NC(=O)C(Cc4cnn[nH]4)NC(=O)c4ccc(NC(=O)/C(C)=C/c5ccc(O)cc5)nc4)cc3)c(OC)c2O)ccc(C(=O)O)c1O (stereo not drawn) [Compound 2] |  |  |  |  |  |  | 2000 (≈ 2260 µM) | 2000 (≈ 2260 µM) | 31 (≈ 35 µM) | 16 (≈ 18.1 µM) | 16 (≈ 18.1 µM) | 500 (≈ 564 µM)
COc1c(NC(=O)c2ccc(NC(=O)c3ccc(NC(=O)C(Cc4cnn[nH]4)NC(=O)c4ccc(NC(=O)/C(C)=C/c5ccc(O)cc5)nn4)cc3)c(OC)c2O)ccc(C(=O)O)c1O (stereo not drawn) [Compound 3] |  |  |  |  |  |  | 4000 (≈ 4510 µM) | 2000 (≈ 2260 µM) | 31 (≈ 35 µM) | 31 (≈ 35 µM) | 31 (≈ 35 µM) | 1000 (≈ 1130 µM)
COc1c(NC(=O)c2ccc(NC(=O)c3ccc(NC(=O)C(Cc4cnn[nH]4)NC(=O)c4ccc(NC(=O)/C(C)=C/c5ccc(O)cc5)cn4)cc3O)c(OC)c2O)ccc(C(=O)O)c1O (stereo not drawn) [Compound 4] |  |  |  |  |  |  | 2000 (≈ 2220 µM) | 2000 (≈ 2220 µM) | 31 (≈ 34.4 µM) | 16 (≈ 17.7 µM) | 31 (≈ 34.4 µM) | 1000 (≈ 1110 µM)
COc1c(NC(=O)c2ccc(NC(=O)c3ccc(NC(=O)C(Cc4cnn[nH]4)NC(=O)c4ccc(NC(=O)/C(C)=C/c5ccc(F)cc5)cn4)cc3O)c(OC)c2O)ccc(C(=O)O)c1O (stereo not drawn) [Compound 5] |  |  |  |  |  |  | 2000 (≈ 2210 µM) | 2000 (≈ 2210 µM) | 16 (≈ 17.7 µM) | 16 (≈ 17.7 µM) | 63 (≈ 69.7 µM) | 250 (≈ 277 µM)
COc1nc(C(=O)Nc2ccc(C(=O)O)c(O)c2OC)ccc1NC(=O)c1ccc(NC(=O)C(Cc2cnn[nH]2)NC(=O)c2ccc(NC(=O)/C(C)=C/c3ccc(O)cc3)cc2)cc1 (stereo not drawn) [Compound 6] |  |  |  |  |  |  | 125 (≈ 144 µM) | 1000 (≈ 1150 µM) | 16 (≈ 18.4 µM) | 31 (≈ 35.6 µM) | 16 (≈ 18.4 µM) | 250 (≈ 287 µM)
COc1nc(C(=O)O)ccc1NC(=O)c1ccc(NC(=O)c2ccc(NC(=O)C(Cc3cnn[nH]3)NC(=O)c3ccc(NC(=O)/C(C)=C/c4ccc(O)cc4)cc3)cc2)c(OC)c1O (stereo not drawn) [Compound 7] |  |  |  |  |  |  | > 8000 | 8000 (≈ 9200 µM) | 250 (≈ 287 µM) | 250 (≈ 287 µM) | 500 (≈ 575 µM) | 2000 (≈ 2300 µM)
COc1c(NC(=O)c2ccc(NC(=O)C(Cc3cnn[nH]3)NC(=O)c3ccc(NC(=O)/C(C)=C/c4ccc(O)cc4)cn3)cc2)ccc(C(=O)Nc2ccc(C(=O)O)c(O)c2OCCO)c1O (stereo not drawn) [Compound 8] |  |  |  |  |  |  | 2000 (≈ 2180 µM) | 2000 (≈ 2180 µM) | 63 (≈ 68.8 µM) | 31 (≈ 33.8 µM) | 125 (≈ 136 µM) | 2000 (≈ 2180 µM)
COc1c(NC(=O)c2ccc(NC(=O)c3ccc(NC(=O)C(Cc4cnn[nH]4)NC(=O)c4ccc(NC(=O)c5ccc(F)cc5)cn4)cc3O)c(OC)c2O)ccc(C(=O)O)c1O (stereo not drawn) [Compound 9] |  |  |  |  |  |  | > 8000 | 1000 (≈ 1160 µM) | 63 (≈ 72.9 µM) | 310 (≈ 359 µM) | 125 (≈ 145 µM) | 1000 (≈ 1160 µM)
COc1c(NC(=O)c2ccc(NC(=O)c3ccc(NC(=O)C(Cc4cnn[nH]4)NC(=O)c4ccc(NC(=O)/C(C)=C/c5ccc(O)cc5)cc4)cn3)c(OC)c2O)ccc(C(=O)O)c1O (stereo not drawn) [Compound 10] |  |  |  |  |  |  | 31 (≈ 35 µM) | 250 (≈ 282 µM) | ≤ 16 | ≤ 16 | ≤ 16 | 63 (≈ 71.1 µM)
COc1c(NC(=O)c2ccc(NC(=O)c3ccc(NC(=O)C(Cc4cnn[nH]4)NC(=O)c4ccc(NC(=O)/C(C)=C/c5ccc(O)cc5)cc4)nc3)c(OC)c2O)ccc(C(=O)O)c1O (stereo not drawn) [Compound 11] |  |  |  |  |  |  | 4000 (≈ 4520 µM) | 8000 (≈ 9030 µM) | 1000 (≈ 1130 µM) | 4000 (≈ 4520 µM) | 500 (≈ 564 µM) | 500 (≈ 564 µM)
COc1c(NC(=O)c2ccc(NC(=O)c3ccc(NC(=O)C(Cc4cnn[nH]4)NC(=O)c4ccc(NC(=O)c5ccc(C#N)cc5)cc4)cn3)c(OC)c2O)ccc(C(=O)O)c1O (stereo not drawn) [Compound 12] |  |  |  |  |  |  | 125 (≈ 146 µM) | 8000 (≈ 9360 µM) | 31 (≈ 36.3 µM) | ≤ 16 | 31 (≈ 36.3 µM) | 250 (≈ 292 µM)
COc1c(NC(=O)c2ccc(NC(=O)c3ccc(NC(=O)C(Cc4cnn[nH]4)NC(=O)c4ccc(NC(=O)c5ccc(C#N)cc5)cn4)cn3)c(OC)c2O)ccc(C(=O)O)c1O (stereo not drawn) [Compound 13] |  |  |  |  |  |  | 63 (≈ 73.6 µM) | 1000 (≈ 1170 µM) | 31 (≈ 36.2 µM) | 4000 (≈ 4670 µM) | 31 (≈ 36.2 µM) | 125 (≈ 146 µM)
COc1c(NC(=O)c2ccc(NC(=O)c3ccc(NC(=O)C(Cc4cnn[nH]4)NC(=O)c4ccc(NC(=O)/C(C)=C/c5ccc(O)cc5)cn4)cn3)c(OC)c2O)ccc(C(=O)O)c1O (stereo not drawn) [Compound 14] |  |  |  |  |  |  | 125 (≈ 141 µM) | 4000 (≈ 4510 µM) | ≤ 16 | ≤ 16 | 63 (≈ 71 µM) | 125 (≈ 141 µM)
C/C(=C\c1ccc(O)cc1)C(=O)Nc1ccc(C(=O)N[C@@H](Cc2c[nH]nn2)C(=O)Nc2ccc(C(=O)Nc3ccc(C(=O)Nc4ccc(C(=O)O)cc4)c(O)c3OC(C)C)nc2)cc1 [Compound 15] |  |  |  |  |  |  | 63 (≈ 72.6 µM) | 250 (≈ 288 µM) | 31 (≈ 35.7 µM) | ≤ 16 | 31 (≈ 35.7 µM) | ≤ 16
C/C(=C\c1ccc(O)cc1)C(=O)Nc1ccc(C(=O)N[C@@H](Cc2c[nH]nn2)C(=O)Nc2ccc(C(=O)Nc3ccc(C(=O)Nc4ccc(C(=O)O)cc4)c(O)c3OC(C)C)nc2)nc1 [Compound 16] |  |  |  |  |  |  | ≤ 16 | 31 (≈ 35.7 µM) | 31 (≈ 35.7 µM) | ≤ 16 | ≤ 16 | ≤ 16
CC(C)Oc1c(NC(=O)c2ccc(NC(=O)[C@H](Cc3c[nH]nn3)NC(=O)c3ccc(NC(=O)c4ccc(C#N)cc4)cc3)cn2)ccc(C(=O)Nc2ccc(C(=O)O)cc2)c1O [Compound 17] |  |  |  |  |  |  | 125 (≈ 149 µM) | 500 (≈ 597 µM) | 31 (≈ 37 µM) | ≤ 16 | 31 (≈ 37 µM) | 31 (≈ 37 µM)
CC(C)Oc1c(NC(=O)c2ccc(NC(=O)[C@H](Cc3c[nH]nn3)NC(=O)c3ccc(NC(=O)c4ccc(C#N)cc4)cn3)cn2)ccc(C(=O)Nc2ccc(C(=O)O)cc2)c1O [Compound 18] |  |  |  |  |  |  | ≤ 16 | 31 (≈ 37 µM) | 31 (≈ 37 µM) | ≤ 16 | ≤ 16 | ≤ 16
COc1nc(C(=O)Nc2ccc(C(=O)O)nc2OC)ccc1NC(=O)c1ccc(NC(=O)[C@H](Cc2c[nH]nn2)NC(=O)c2ccc(NC(=O)/C(C)=C/c3ccc(O)cc3)cc2)cc1 [Compound 19] |  |  |  |  |  |  | 2000 (≈ 2340 µM) | 8000 (≈ 9360 µM) | 500 (≈ 585 µM) | 500 (≈ 585 µM) | 1000 (≈ 1170 µM) | 4000 (≈ 4680 µM)
COc1c(NC(=O)c2ccc(NC(=O)[C@H](Cc3c[nH]nn3)NC(=O)c3ccc(NC(=O)/C(C)=C/c4ccc(O)cc4)cc3)cc2)ccc(C(=O)Nc2ccc(C(=O)O)nc2)c1O [Compound 20] |  |  |  | 125 (≈ 149 µM) |  |  | ≥ 8000 | ≥ 8000 | > 8000 |  | > 8000 | ≥ 8000
COc1c(NC(=O)c2ccc(NC(=O)[C@H](Cc3c[nH]nn3)NC(=O)c3ccc(NC(=O)/C(C)=C/c4ccc(O)cc4)cc3)cc2)ccc(C(=O)Nc2ccc(C(=O)O)cn2)c1O [Compound 21] |  |  | 125 (≈ 149 µM) |  | 125 (≈ 149 µM) |  | 4000 (≈ 4760 µM) | 4000 (≈ 4760 µM) |  | 16 (≈ 19.1 µM) |  | 4000 (≈ 4760 µM)
